{"source": "patent US7767717B2", "about": "(priority 2003, dated 2010)", "key": {"[1]": {"assay": "cutaneous [^3H]-4-hydroxy tamoxifen delivery in breast cancer patients: radioactivity in breast tissue, blood, urine", "settings": "for share of radioactivity in blood: 24 hours after cutaneous 4-hydroxy tamoxifen", "protocol": "(§1) The patients received [^3H]-labeled drug applied directly on the affected breasts at specified intervals ranging from 12 hours to 7 days before surgery to excise diseased tissue. Breast tissue from three regions: the tumor, tissue immediately surrounding the tumor, and normal tissue, was excised and immediately frozen in liquid nitrogen. Additionally, plasma and urine samples were obtained at scheduled intervals and frozen until analysis."}, "[2]": {"assay": "pharmacokinetics of topically applied 4-hydroxy tamoxifen gel in healthy premenopausal women", "format": "in vivo, human", "settings": "last administration, day 25 of second cycle; for t1/2: range", "experimental": "Each participant applied the gel daily for the duration of two menstrual cycles.\nAt the end of a menstrual cycle, each patient received a single dose, after which serial blood samples were collected at 0, 0.5, 1, 1.5, 2, 3, 4, 6, 12, 18, 24, 36, 48, and 72 hours.\nOn the first day of the following menstruation, treatment, which consisted of daily application of the gel over two menstrual cycles, began. Blood samples were collected 24 hours following the morning application of gel on days 7, 20 and 25 of the first and second cycles. On the last day of administration, day 25 of the second menstrual cycle, serial blood samples were collected prior to application and at 0.5, 1, 1.5, 2, 3, 4, 6, 12, 18, 24, 36, 48, and 72 hours after application of the gel."}, "[3]": {"settings": "human, in vivo", "protocol": "as §1"}, "[4]": {"settings": "topical application"}, "estrone sulphatase": {"biological_target": "T1, estrone sulphatase (Homo sapiens, UniProt P08842)", "T1 construct": "estrone sulphatase activity in mammary cancer cell lines; endogenous in cells", "T1 sequence (P08842 22-583)": "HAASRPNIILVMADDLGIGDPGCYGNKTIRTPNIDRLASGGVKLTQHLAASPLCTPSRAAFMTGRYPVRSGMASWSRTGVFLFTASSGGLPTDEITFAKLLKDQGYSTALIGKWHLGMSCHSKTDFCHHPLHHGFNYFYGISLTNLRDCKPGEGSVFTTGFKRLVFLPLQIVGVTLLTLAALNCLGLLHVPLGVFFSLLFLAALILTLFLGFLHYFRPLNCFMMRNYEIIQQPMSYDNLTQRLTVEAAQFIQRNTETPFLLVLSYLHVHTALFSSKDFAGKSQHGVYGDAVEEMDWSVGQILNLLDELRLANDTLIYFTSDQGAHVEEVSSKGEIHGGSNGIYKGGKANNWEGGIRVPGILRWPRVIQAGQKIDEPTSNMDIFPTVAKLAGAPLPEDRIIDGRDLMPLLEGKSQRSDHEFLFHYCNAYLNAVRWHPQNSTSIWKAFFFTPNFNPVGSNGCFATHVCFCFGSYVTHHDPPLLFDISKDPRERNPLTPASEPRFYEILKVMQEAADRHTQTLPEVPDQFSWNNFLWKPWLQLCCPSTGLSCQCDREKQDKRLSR", "settings": "mammary cancer cell lines; cited from earlier work"}, "[5]": {"settings": "cited from earlier work"}, "[6]": {"settings": "human, in vivo; cited from earlier work"}, "[7]": {"test_system": "p53(−) normal human mammary epithelial cells", "settings": "cited from earlier work"}, "keloid fibroblast": {"test_system": "keloid fibroblast", "settings": "in vitro, cited from earlier work"}, "TGF-β1": {"test_system": "TGF-β1", "settings": "cited from earlier work"}, "[8]": {"settings": "Group 2 (0.5 mg/day gel) on the seventh day; Group 1 (oral tamoxifen 20 mg/day) on the fifth day; cited from earlier work"}, "[9]": {"settings": "12 hr after cutaneous Z-[^3H]-4-hydroxy tamoxifen to the affected breast"}, "[10]": {"settings": "24 hr after cutaneous Z-[^3H]-4-hydroxy tamoxifen to the affected breast"}, "[11]": {"settings": "36 hr after cutaneous Z-[^3H]-4-hydroxy tamoxifen to the affected breast"}, "[12]": {"settings": "Day 4 after cutaneous Z-[^3H]-4-hydroxy tamoxifen to the affected breast"}, "[13]": {"settings": "Day 7 after cutaneous Z-[^3H]-4-hydroxy tamoxifen to the affected breast"}}, "note": "Read-outs that look alike come from different tables or passages of the source.", "data": [{"molecule": "CC/C(=C(/c1ccc(O)cc1)c1ccc(OCCN(C)C)cc1)c1ccccc1", "note": "(single isomer, unassigned) [E isomer]", "values": [{"measurement": "percentage of isomer in breast tissue radioactivity", "setting": "[1]; day 7 after cutaneous Z-[^3H]-4-hydroxy tamoxifen", "result": 33, "unit": "%"}]}, {"molecule": "CCC(=C(c1ccc(O)cc1)c1ccc(OCCN(C)C)cc1)c1ccccc1", "note": "[4-hydroxy tamoxifen, 1-[4-(2-N-dimethylaminoethoxy)phenyl]-1-(4-hydroxyphenyl)-2-phenylbut-1-ene]", "values": [{"measurement": "AUC0-24", "setting": "[2]; 0.5 mg/day, 20 mg/100 g gel", "result": "0.2563 ± 0.2053", "unit": "ng·h/mL"}, {"measurement": "Cav = AUC0-24/24", "setting": "[2]; 0.5 mg/day, 20 mg/100 g gel", "result": "0.0107 ± 0.0085", "unit": "ng/mL"}, {"measurement": "Cmax", "setting": "[2]; 0.5 mg/day, 20 mg/100 g gel", "result": "0.017 ± 0.0085", "unit": "ng/mL"}, {"measurement": "tmax", "setting": "[2]; 0.5 mg/day, 20 mg/100 g gel", "result": "40 ± 81", "unit": "h"}, {"measurement": "AUC0-24", "setting": "[2]; 1 mg/day, 20 mg/100 g gel", "result": "0.3009 ± 0.1908", "unit": "ng·h/mL"}, {"measurement": "Cav = AUC0-24/24", "setting": "[2]; 1 mg/day, 20 mg/100 g gel", "result": "0.0125 ± 0.0079", "unit": "ng/mL"}, {"measurement": "Cmax", "setting": "[2]; 1 mg/day, 20 mg/100 g gel", "result": "0.021 ± 0.014", "unit": "ng/mL"}, {"measurement": "tmax", "setting": "[2]; 1 mg/day, 20 mg/100 g gel", "result": "24 ± 18", "unit": "h"}, {"measurement": "AUC0-24", "setting": "[2]; 1 mg/day, 57 mg/100 g gel", "result": "0.619 ± 0.466", "unit": "ng·h/mL"}, {"measurement": "Cav = AUC0-24/24", "setting": "[2]; 1 mg/day, 57 mg/100 g gel", "result": "0.0258 ± 0.0194", "unit": "ng/mL"}, {"measurement": "Cmax", "setting": "[2]; 1 mg/day, 57 mg/100 g gel", "result": "0.0351 ± 0.0224", "unit": "ng/mL"}, {"measurement": "tmax", "setting": "[2]; 1 mg/day, 57 mg/100 g gel", "result": "12.8 ± 14.9", "unit": "h"}, {"measurement": "t1/2", "setting": "[2]; 1 mg/day, 57 mg/100 g gel", "result": "(58-118) hr"}, {"measurement": "AUC0-24", "setting": "[2]; 2 mg/day, 57 mg/100 g gel", "result": "0.998 ± 0.653", "unit": "ng·h/mL"}, {"measurement": "Cav = AUC0-24/24", "setting": "[2]; 2 mg/day, 57 mg/100 g gel", "result": "0.0416 ± 0.0272", "unit": "ng/mL"}, {"measurement": "Cmax", "setting": "[2]; 2 mg/day, 57 mg/100 g gel", "result": "0.0516 ± 0.0317", "unit": "ng/mL"}, {"measurement": "tmax", "setting": "[2]; 2 mg/day, 57 mg/100 g gel", "result": "11.8 ± 12.3", "unit": "h"}, {"measurement": "t1/2", "setting": "[2]; 2 mg/day, 57 mg/100 g gel", "result": "(49-101) hr"}, {"measurement": "metabolism in intracellular sites of breast tissue", "setting": "[3]", "result": "remained unmetabolized except for limited isomerization from the Z to the E form"}, {"measurement": "metabolites in the urine", "setting": "[3]", "result": "progressive increase of metabolites, mostly N-desmethyl-4-hydroxy tamoxifen and bisphenol"}, {"measurement": "radioactivity administered that showed in the blood", "setting": "[3]", "result": 0.5, "unit": "%"}, {"measurement": "share of radioactivity in blood", "setting": "[3]", "result": 68, "unit": "%"}, {"measurement": "subcellular distribution in breast tissue", "setting": "[3]", "result": "concentrated predominantly in the cytosolic and nuclear fractions of breast tissue"}, {"measurement": "time of plateau of radioactivity in blood", "setting": "[3]", "result": "4 to 6", "unit": "days"}, {"measurement": "systemic effects", "setting": "[4]", "result": "no detectable laboratory or clinical evidence of systemic effects"}, {"measurement": "inhibitory effect on estrone sulphatase activity", "setting": "estrone sulphatase", "result": "significant inhibitory effect"}, {"measurement": "rat liver carcinogenicity", "setting": "[5]; in vivo", "result": "not"}, {"measurement": "radioactivity in excised tissue and normal breast tissue surrounding the tumor", "setting": "[6]", "result": "contained radioactivity"}]}, {"molecule": "CC(C)(c1ccc(O)cc1)c1ccc(O)cc1", "note": "[Bisphenol]", "values": [{"measurement": "% Metabolites in Breast Tissue", "setting": "[1]; [9]", "result": 1, "unit": "%"}, {"measurement": "share of radioactivity in blood", "setting": "[1]", "result": 11, "unit": "%"}, {"measurement": "% Metabolites in Breast Tissue", "setting": "[1]; [10]", "result": 2, "unit": "%"}, {"measurement": "% Metabolites in Breast Tissue", "setting": "[1]; [11]", "result": 3, "unit": "%"}, {"measurement": "% Metabolites in Breast Tissue", "setting": "[1]; [12]", "result": 8, "unit": "%"}, {"measurement": "% Metabolites in Breast Tissue", "setting": "[1]; [13]", "result": 8, "unit": "%"}]}, {"molecule": "CC/C(=C(\\c1ccc(O)cc1)c1ccc(OCCNC)cc1)c1ccccc1", "note": "[N-Desmethyl-4-Hydroxy Tamoxifen]", "values": [{"measurement": "% Metabolites in Breast Tissue", "setting": "[1]; [9]", "result": 2, "unit": "%"}, {"measurement": "share of radioactivity in blood", "setting": "[1]", "result": 18, "unit": "%"}, {"measurement": "% Metabolites in Breast Tissue", "setting": "[1]; [10]", "result": 4, "unit": "%"}, {"measurement": "% Metabolites in Breast Tissue", "setting": "[1]; [11]", "result": 14, "unit": "%"}, {"measurement": "% Metabolites in Breast Tissue", "setting": "[1]; [12]", "result": 20, "unit": "%"}, {"measurement": "% Metabolites in Breast Tissue", "setting": "[1]; [13]", "result": 16, "unit": "%"}]}, {"molecule": "CC/C(=C(\\c1ccc(O)cc1)c1ccc(OCCN(C)C)cc1)c1ccccc1", "note": "[Z-4-hydroxy tamoxifen]", "values": [{"measurement": "percentage of isomer in breast tissue radioactivity", "setting": "[3]", "result": 32, "unit": "%"}]}, {"molecule": "CC/C(=C(\\c1ccccc1)c1ccc(OCCN(C)C)cc1)c1ccccc1", "note": "[tamoxifen]", "values": [{"measurement": "initiation of apoptosis", "setting": "[7]", "result": "initiates apoptosis"}, {"measurement": "inhibitory effect on estrone sulphatase activity", "setting": "estrone sulphatase", "result": "little or no effect"}, {"measurement": "collagen production", "setting": "keloid fibroblast; keloid fibroblasts", "result": "decreases collagen production"}, {"measurement": "keloid fibroblast proliferation", "setting": "keloid fibroblast", "result": "inhibits keloid fibroblast proliferation"}, {"measurement": "TGF-β1 expression", "setting": "TGF-β1", "result": "downregulating TGF-β1 expression"}, {"measurement": "side effects reported by one person of the group", "setting": "[8]", "result": "hot flashes and mild vaginitis"}, {"measurement": "rat liver carcinogenicity", "setting": "[5]", "result": "potent rat liver carcinogen"}, {"measurement": "time of plateau of radioactivity in blood", "setting": "[1]; cutaneous [^3H]-labeled drug", "result": 2, "unit": "days"}, {"measurement": "retention in the breast", "setting": "[1]; cutaneous [^3H]-labeled drug, 80 μCi", "result": "shorter and far weaker"}]}]}
